For test [1], the target named is T1, Protein kinase C epsilon type (Homo sapiens) (UniProt Q02156).
T1 sequence (whole entry): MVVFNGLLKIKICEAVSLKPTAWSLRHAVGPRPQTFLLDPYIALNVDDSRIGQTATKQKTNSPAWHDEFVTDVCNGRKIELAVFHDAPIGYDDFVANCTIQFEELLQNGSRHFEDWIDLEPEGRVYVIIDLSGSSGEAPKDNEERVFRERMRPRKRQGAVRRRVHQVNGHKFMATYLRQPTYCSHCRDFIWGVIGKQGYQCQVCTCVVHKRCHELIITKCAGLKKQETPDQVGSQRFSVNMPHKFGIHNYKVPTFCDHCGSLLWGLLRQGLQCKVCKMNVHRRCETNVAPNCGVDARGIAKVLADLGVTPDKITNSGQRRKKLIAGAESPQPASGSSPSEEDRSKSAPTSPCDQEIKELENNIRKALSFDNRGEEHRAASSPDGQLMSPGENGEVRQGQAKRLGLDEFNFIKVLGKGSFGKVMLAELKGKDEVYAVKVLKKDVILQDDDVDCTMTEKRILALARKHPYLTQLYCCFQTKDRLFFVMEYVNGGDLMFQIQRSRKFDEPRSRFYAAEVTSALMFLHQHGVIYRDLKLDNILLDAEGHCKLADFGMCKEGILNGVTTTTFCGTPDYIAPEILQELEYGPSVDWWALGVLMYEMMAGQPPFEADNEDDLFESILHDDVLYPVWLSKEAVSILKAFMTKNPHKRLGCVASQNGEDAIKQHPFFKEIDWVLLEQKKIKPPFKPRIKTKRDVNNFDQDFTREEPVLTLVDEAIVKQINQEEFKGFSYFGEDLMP
As to the kind of experiment: Inhibition of PKCepsilon at 1 uM; values are per cent of control.

For test [2], the target named is T2, Calcium/calmodulin-dependent protein kinase type IV (Homo sapiens) (UniProt Q16566).
T2 sequence (whole entry): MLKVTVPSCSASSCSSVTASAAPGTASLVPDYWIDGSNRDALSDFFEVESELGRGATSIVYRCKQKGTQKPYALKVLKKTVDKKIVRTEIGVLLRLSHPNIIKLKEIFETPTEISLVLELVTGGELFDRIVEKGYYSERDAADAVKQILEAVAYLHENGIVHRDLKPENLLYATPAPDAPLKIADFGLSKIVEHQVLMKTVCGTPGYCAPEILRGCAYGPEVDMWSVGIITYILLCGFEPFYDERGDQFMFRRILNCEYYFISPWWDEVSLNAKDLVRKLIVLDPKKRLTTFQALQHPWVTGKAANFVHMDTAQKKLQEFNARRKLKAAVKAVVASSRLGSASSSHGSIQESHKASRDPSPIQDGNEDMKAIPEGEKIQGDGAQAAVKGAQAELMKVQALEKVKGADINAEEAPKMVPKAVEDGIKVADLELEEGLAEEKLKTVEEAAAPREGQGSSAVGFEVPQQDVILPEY
Briefly: Inhibition of CaMK4 at 0.1 uM; values are per cent of control.

In test [3] the target is Serine/threonine-protein kinase SIK1 (Homo sapiens) (UniProt P57059). Briefly: Inhibition of SIK at 0.1 uM; values are per cent of control.
Test [4] concerns the target T3, Protein kinase C iota type (Homo sapiens) (UniProt P41743).
T3 sequence (whole entry): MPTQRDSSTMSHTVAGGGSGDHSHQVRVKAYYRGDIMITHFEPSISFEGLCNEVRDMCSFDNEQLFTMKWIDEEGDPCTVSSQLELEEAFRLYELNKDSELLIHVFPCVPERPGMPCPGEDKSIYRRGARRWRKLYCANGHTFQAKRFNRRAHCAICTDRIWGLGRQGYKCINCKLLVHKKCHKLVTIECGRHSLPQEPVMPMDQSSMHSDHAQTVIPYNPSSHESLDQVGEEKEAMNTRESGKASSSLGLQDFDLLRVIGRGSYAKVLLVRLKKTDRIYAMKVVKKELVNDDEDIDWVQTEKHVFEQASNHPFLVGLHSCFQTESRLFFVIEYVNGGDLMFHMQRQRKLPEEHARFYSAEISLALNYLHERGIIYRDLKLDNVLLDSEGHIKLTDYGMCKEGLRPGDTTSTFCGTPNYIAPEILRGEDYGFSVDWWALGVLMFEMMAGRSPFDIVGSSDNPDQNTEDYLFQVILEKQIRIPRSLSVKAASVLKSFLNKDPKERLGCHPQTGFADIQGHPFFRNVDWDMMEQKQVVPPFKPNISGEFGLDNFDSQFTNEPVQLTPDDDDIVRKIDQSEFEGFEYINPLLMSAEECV
Briefly: Inhibition of PKCiota at 0.1 uM; values are per cent of control.

For test [5], the target named is Tyrosine-protein kinase Fyn (Homo sapiens) (UniProt P06241). As to the kind of experiment: Inhibition of Fyn at 0.1 uM; values are per cent of control.
Test [6] addresses Fibroblast growth factor receptor 1 (Homo sapiens) (UniProt P11362). As to the kind of experiment: Inhibition of FGFR1 at 0.1 uM; values are per cent of control.
Test [7] deals with T1, Protein kinase C epsilon type (Homo sapiens). As to the kind of experiment: Inhibition of PKCepsilon at 0.1 uM; values are per cent of control.

The record followed here is ChEMBL document CHEMBL1681705, “Optimisation of ITK inhibitors through successive iterative design cycles” (Bioorg Med Chem Lett, 2011).

Chain of Tyrosine-protein kinase Fyn (Homo sapiens) (P06241 2-537 limits assumed): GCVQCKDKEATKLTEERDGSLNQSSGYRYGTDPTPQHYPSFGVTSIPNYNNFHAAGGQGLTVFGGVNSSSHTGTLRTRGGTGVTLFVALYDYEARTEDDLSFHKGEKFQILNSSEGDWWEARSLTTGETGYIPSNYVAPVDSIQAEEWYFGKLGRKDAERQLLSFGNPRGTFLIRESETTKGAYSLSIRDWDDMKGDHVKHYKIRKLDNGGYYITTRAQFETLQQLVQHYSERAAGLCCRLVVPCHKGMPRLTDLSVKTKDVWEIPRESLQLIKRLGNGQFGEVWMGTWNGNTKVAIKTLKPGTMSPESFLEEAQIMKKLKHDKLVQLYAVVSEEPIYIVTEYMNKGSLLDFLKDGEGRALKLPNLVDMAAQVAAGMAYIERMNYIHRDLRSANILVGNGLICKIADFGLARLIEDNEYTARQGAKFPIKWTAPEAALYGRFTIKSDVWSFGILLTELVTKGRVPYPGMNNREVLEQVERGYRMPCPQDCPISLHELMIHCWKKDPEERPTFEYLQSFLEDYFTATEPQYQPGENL
Chain of Fibroblast growth factor receptor 1 (Homo sapiens) (P11362 22-822 limits assumed): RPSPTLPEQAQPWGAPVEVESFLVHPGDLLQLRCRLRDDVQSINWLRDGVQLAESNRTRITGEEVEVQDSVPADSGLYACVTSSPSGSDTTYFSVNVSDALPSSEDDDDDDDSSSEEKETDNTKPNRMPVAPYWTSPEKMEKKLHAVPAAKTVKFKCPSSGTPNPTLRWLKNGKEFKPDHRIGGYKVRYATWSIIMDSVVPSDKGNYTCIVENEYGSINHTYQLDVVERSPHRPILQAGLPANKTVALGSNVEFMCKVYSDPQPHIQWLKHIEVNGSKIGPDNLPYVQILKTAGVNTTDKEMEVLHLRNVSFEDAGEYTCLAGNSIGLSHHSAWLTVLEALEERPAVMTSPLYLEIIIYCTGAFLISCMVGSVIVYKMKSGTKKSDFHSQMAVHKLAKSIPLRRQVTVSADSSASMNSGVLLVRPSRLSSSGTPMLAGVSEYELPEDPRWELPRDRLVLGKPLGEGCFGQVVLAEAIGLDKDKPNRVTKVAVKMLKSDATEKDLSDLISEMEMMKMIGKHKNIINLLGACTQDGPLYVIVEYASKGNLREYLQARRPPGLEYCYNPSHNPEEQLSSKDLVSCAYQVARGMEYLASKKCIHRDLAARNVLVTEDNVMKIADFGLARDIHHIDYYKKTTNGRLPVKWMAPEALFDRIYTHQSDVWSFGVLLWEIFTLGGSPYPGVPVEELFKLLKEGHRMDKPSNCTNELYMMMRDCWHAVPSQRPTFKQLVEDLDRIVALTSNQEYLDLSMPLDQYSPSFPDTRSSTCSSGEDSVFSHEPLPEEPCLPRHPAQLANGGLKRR
Chain of Serine/threonine-protein kinase SIK1 (Homo sapiens) (P57059 whole entry): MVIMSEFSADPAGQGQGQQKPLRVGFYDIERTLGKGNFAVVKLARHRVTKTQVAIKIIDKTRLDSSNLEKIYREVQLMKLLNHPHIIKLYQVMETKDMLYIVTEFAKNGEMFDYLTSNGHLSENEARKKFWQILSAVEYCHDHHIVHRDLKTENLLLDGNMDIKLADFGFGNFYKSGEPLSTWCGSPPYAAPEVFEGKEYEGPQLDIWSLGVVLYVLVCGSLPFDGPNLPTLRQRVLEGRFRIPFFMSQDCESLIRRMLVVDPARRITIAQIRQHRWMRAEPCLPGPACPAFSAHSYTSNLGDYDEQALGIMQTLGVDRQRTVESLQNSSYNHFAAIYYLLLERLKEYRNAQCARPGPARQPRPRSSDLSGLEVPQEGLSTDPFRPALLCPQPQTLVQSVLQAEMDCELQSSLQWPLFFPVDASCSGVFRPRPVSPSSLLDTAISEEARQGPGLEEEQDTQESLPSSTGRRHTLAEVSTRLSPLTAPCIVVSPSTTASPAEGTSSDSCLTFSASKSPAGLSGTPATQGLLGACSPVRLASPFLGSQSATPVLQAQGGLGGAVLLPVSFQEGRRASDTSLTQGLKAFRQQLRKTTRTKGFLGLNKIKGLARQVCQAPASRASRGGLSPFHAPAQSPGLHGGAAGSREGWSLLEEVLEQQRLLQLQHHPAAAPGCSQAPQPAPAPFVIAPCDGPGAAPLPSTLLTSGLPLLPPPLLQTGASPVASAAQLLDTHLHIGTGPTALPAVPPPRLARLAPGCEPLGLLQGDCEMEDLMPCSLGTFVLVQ

With `Cc1ccc2cc(-c3n[nH]c4ccc(NC5CCNC5)cc34)[nH]c2c1` (centres undefined), the residual activity (commonly the signal under treatment as a percentage of the control signal) is 21% in test [1]; 74% in test [2]; 18% in test [3]; 89% in test [4]; 1% in test [5]; 0% in test [6]. Also, the residual activity in test [7] is 30%.
Regarding `Cc1ccc2cc(-c3n[nH]c4ccc(NC5CCN(Cc6ccccc6)CC5)cc34)[nH]c2c1`, the residual activity stood at 67% in test [1]; 109% in test [2]; 43% in test [3]; 109% in test [4]; 30% in test [5]; 2% in test [6]. Further, in test [7], the residual activity worked out at 86%.
